{"source": "patent US9056844B2", "about": "“4-substituted-3-benzyloxy-bicyclo[3.1.0]hexane compounds as mGluR 2/3 antagonists” (Eli Lilly and Company, priority 2010, dated 2015)", "key": {"male NIH-Swiss mice": {"test_system": "male NIH-Swiss mice", "experiment": "Forced-swim test in mice (mFST)", "format": "in vivo, mouse", "source_text": "Forced-Swim Test in Mice (mFST)\nmFST is an established in vivo assay for antidepressant activity (Li et al. J Pharmacol Exp Ther. 319(1):254-9, 2006.). […] The mFST was used to evaluate potential antidepressant-like activity of novel mGlu2/3 antagonists essentially as described in previously published methods (see for example, Li et al. J Pharmacol Exp Ther. 319(1):254-9, 2006.). Briefly, male NIH-Swiss mice (Harlan Sprague-Dawley, Indianapolis, Ind.) weighing between 25-30 g are used. Group housed animals are removed from the vivarium to the testing area in their own cages and allowed to adapt to the new environment for at least 1 hour before testing. Compounds where R^1 and R^2 are both hydrogen are dissolved in water with minimal NaOH added for dissolution and are administered i.p. Compounds where R^1 and/or R^2 are other than hydrogen are prepared on the day of use in 2.0-2.5% N-methyl-pyrrolidinone and then suspended in 1% HEC, 0.25% Tween 80, and 0.05% Dow antifoam, and administered orally. Mice are placed in a cylinder (diameter: 10 cm; height: 25 cm) filled with 6 cm of water (22-25° C.) for 6 min. The duration of immobility during the last 4 min. of the 6 min. period of the test was scored. A mouse is recorded as immobile when floating motionless or making only those movements necessary to keep its head above water."}, "mGlu2+/+ mice": {"test_system": "mGlu2+/+ mice", "experiment": "mFST in mGlu2+/+ littermate mice", "format": "in vivo, mouse", "conditions": "30 mg/kg, po, 120 min prior"}, "mice": {"test_system": "mice", "experiment": "mFST with SSRI (fluoxetine combination)", "format": "in vivo, mouse", "method": "mFST is an established in vivo assay for antidepressant activity (Li et al. J Pharmacol Exp Ther. 319(1):254-9, 2006.). […] J Pharmacol Exp Ther. 319(1):254-9, 2006.). Briefly, male NIH-Swiss mice (Harlan Sprague-Dawley, Indianapolis, Ind.) weighing between 25-30 g are used. Group housed animals are removed from the vivarium to the testing area in their own cages and allowed to adapt to the new environment for at least 1 hour before testing. Compounds where R^1 and R^2 are both hydrogen are dissolved in water with minimal NaOH added for dissolution and are administered i.p. […] Mice are placed in a cylinder (diameter: 10 cm; height: 25 cm) filled with 6 cm of water (22-25° C.) for 6 min. The duration of immobility during the last 4 min. of the 6 min. period of the test was scored. A mouse is recorded as immobile when floating motionless or making only those movements necessary to keep its head above water. The compounds of the invention may also be tested in combination with other compounds useful for the treatment of depressive disorders, as for example SSRI's, for their ability to enhance the antidepressant-like effects over that of either compound alone."}, "[1]": {"experiment": "Brain and plasma levels of active di-acid in the fluoxetine combination study", "format": "in vivo, mouse", "conditions": "combination with fluoxetine versus alone", "source_text": "The compounds of the invention may also be tested in combination with other compounds useful for the treatment of depressive disorders, as for example SSRI's, for their ability to enhance the antidepressant-like effects over that of either compound alone."}, "male Wistar rats": {"test_system": "male Wistar rats", "experiment": "Wakefulness and behavioral monitoring in rats (EEG/EMG/LMA)", "format": "in vivo, rat", "conditions": "for Locomotor Activity Intensity, Mean (difference from vehicle controls): averaged over the first 7 hr post-treatment; for Cumulative Time Awake 8-19 hours, Mean (difference from vehicle controls): rebound hypersomnolence measure", "method": "Wakefulness and Behavioral Monitoring in Rats:\nRepresentative compounds of the present invention are tested in rats for their ability to increase the amount of time in a state of wakefulness without undesired effects such as inhibition of REM sleep, waking motor impairment (disproportionate hyper- or hypolocomotion), and/or rebound hypersomnia Test animals are continuously monitored by electro-encephalograms (EEG), electromyograms (EMG), and motion to measure cumulative time awake, rebound hypersomnia, and locomotor activity intensity during wakefulness. Methods for such studies are known in the art (see for example methods described in Edgar D M, Seidel W F. Modafinil induces wakefulness without intensifying motor activity or subsequent rebound hypersomnolence in the rat. J Pharmacology & Experimental Therapeutics 1997; 283: 757-769; van Gelder R N, Edgar D M, Dement W C. Real-time automated sleep scoring: validation of a microcomputer-based system for mice. Sleep 1991, 14: 48-55; and Gross B A, Walsh C M, Turakhia A A, Booth V, Mashour G A, Poe G R. Open-source logic-based automated sleep scoring software using electrophysiological recordings in rats. J Neurosci Methods. 2009; 184(1):10-8.) Studies are conducted as follows:\nAdult, male Wistar rats (approximately 270-300 g at time of surgery) are surgically fitted for chronic recording of EEG, EMG, body temperature, and motion as follows: Rats are surgically prepared with a cranial implant consisting of four stainless steel screws for EEG recording (two frontal [3.9 mm anterior from bregma, and ±2.0 mm mediolaterally] and two occipital [6.4 mm posterior from bregma, ±5.5 mm mediolaterally]), and with two Teflon-coated stainless steel wires for EMG recording (positioned under the nuchal trapezoid muscles). All leads are soldered to a miniature connector (Microtech, Boothwyn, Pa.) prior to surgery. The implant assembly is affixed to the skull by the combination of the stainless steel EEG recording screws, cyanoacrylate applied between the implant connector and skull, and dental acrylic. Body temperature and locomotor activity is monitored via a miniature transmitter (Minimitter PDT4000G, Philips Respironics, Bend, Oreg.) surgically placed into the abdomen. At least 3 weeks are allowed for recovery.\nEach rat is housed individually within a microisolator cage modified with an inserted polycarbonate filter-top riser to allow more vertical headroom. A flexible cable that minimally restricts movement is connected at one end to a commutator affixed to the cage top and at the other end to the animal's cranial implant. Each cage is located within separate, ventilated compartments of a stainless steel sleep-wake recording chamber. Food and water are available ad libitum and the ambient temperature is maintained at about 23±1° C. A 24-hr light-dark cycle (LD 12:12) using fluorescent light is maintained throughout the study. Relative humidity averages approximately 50%. Animals are undisturbed for at least 30 hrs before and after each treatment.\nCompounds where R^1 and R^2 are both hydrogen are dissolved in water with minimal NaOH added for dissolution and are administered i.p in a volume of 1.0 mL per kg body weight. Compounds where R^1 and/or R^2 are other than hydrogen are administer p.o. in a volume of 2 mL per kg body weight in one of two alternative vehicles: i) 2.5% N-methyl-2-pyrrolidinone in hydroxyethylcellulose; or ii) 10% acacia with 0.05% Dow Corning® Antifoam in water. The vehicle or one of the compound dose levels is administered pseudo-randomly such that no rat receives the same treatment twice, and no rat receives more than two of the 8 treatments in any one study. Each rat is removed from its cage for about a minute to be weighed and treated. At least 6 days “washout” period precede and follow each treatment.\nSleep and wakefulness discrimination may be automated (e.g., Van Gelder et al. 1991; Edgar et al. 1997, Winrow et al., 2010; Gross et al., 2009). […]"}}, "data": [{"smiles": "CC(C)OC(=O)OCOC(=O)[C@H]1[C@@H]2[C@H](O)[C@@H](OCc3ccc(Cl)c(Cl)c3)[C@@](N)(C(=O)OCOC(=O)OC(C)C)[C@H]12.Cl", "note": "[Example 10, Bis({[(1-methylethoxy)carbonyl]oxy}methyl) (1S,2R,3S,4S,5R,6R)-2-amino-3-[(3,4-dichlorobenzyl)oxy]-4-hydroxybicyclo[3.1.0]hexane-2,6-dicarboxylate hydrochloride]", "values": [{"measurement": "ED60", "setting": "male NIH-Swiss mice; Mus musculus, po, immobility in last 4 min of 6 min", "result": 22.1, "unit": "mg/kg"}, {"measurement": "Maximal Decrease (1 − compound/control) * 100%", "setting": "male NIH-Swiss mice; p.o., immobility time", "result": 50.5, "unit": "%"}, {"measurement": "immobility time", "setting": "mGlu2+/+ mice", "result": "decrease immobility time"}, {"measurement": "antidepressant-like effect in combination with fluoxetine", "setting": "mice; Example 10 17 mg/kg p.o. with fluoxetine 10 mg/kg i.p.", "result": "significantly increase the antidepressant-like effect over that of either compound alone"}, {"measurement": "Maximal Decrease (1 − compound/control) * 100%", "setting": "mice; Example 10 17 mg/kg p.o., fluoxetine 10 mg/kg i.p., alone or combined", "result": 24.5, "unit": "%"}, {"measurement": "Immobilization Time", "setting": "mice; Example 10 17 mg/kg p.o., fluoxetine 10 mg/kg i.p., alone or combined, vehicle 174", "result": 105, "unit": "s"}, {"measurement": "brain and plasma levels of the active di-acid moiety", "setting": "[1]", "result": "no increase in exposure levels"}, {"measurement": "Cumulative Time Awake first 7 hours, Mean (difference from vehicle controls)", "setting": "male Wistar rats; 10 mg/kg PO", "result": 20.4, "unit": "min"}, {"measurement": "Locomotor Activity Intensity, Mean (difference from vehicle controls)", "setting": "male Wistar rats; 10 mg/kg PO", "result": "2.7 counts of LMA per minute of EEG-defined wakefulness"}, {"measurement": "Cumulative Time Awake 8-19 hours, Mean (difference from vehicle controls)", "setting": "male Wistar rats; 10 mg/kg PO", "result": 15.2, "unit": "min"}, {"measurement": "Cumulative Time Awake first 7 hours, Mean (difference from vehicle controls)", "setting": "male Wistar rats; 30 mg/kg PO", "result": 48.8, "unit": "min"}, {"measurement": "Locomotor Activity Intensity, Mean (difference from vehicle controls)", "setting": "male Wistar rats; 30 mg/kg PO", "result": "0.5 counts of LMA per minute of EEG-defined wakefulness"}, {"measurement": "Cumulative Time Awake 8-19 hours, Mean (difference from vehicle controls)", "setting": "male Wistar rats; 30 mg/kg PO", "result": 25.6, "unit": "min"}, {"measurement": "Cumulative Time Awake first 7 hours, Mean (difference from vehicle controls)", "setting": "male Wistar rats; 60 mg/kg PO", "result": 64.7, "unit": "min"}, {"measurement": "Locomotor Activity Intensity, Mean (difference from vehicle controls)", "setting": "male Wistar rats; 60 mg/kg PO", "result": "4.2 counts of LMA per minute of EEG-defined wakefulness"}, {"measurement": "Cumulative Time Awake 8-19 hours, Mean (difference from vehicle controls)", "setting": "male Wistar rats; 60 mg/kg PO", "result": 34.7, "unit": "min"}]}]}
